Target: T1, Hexokinase-1 (Homo sapiens, UniProt P19367)
T1 sequence (P19367 whole entry): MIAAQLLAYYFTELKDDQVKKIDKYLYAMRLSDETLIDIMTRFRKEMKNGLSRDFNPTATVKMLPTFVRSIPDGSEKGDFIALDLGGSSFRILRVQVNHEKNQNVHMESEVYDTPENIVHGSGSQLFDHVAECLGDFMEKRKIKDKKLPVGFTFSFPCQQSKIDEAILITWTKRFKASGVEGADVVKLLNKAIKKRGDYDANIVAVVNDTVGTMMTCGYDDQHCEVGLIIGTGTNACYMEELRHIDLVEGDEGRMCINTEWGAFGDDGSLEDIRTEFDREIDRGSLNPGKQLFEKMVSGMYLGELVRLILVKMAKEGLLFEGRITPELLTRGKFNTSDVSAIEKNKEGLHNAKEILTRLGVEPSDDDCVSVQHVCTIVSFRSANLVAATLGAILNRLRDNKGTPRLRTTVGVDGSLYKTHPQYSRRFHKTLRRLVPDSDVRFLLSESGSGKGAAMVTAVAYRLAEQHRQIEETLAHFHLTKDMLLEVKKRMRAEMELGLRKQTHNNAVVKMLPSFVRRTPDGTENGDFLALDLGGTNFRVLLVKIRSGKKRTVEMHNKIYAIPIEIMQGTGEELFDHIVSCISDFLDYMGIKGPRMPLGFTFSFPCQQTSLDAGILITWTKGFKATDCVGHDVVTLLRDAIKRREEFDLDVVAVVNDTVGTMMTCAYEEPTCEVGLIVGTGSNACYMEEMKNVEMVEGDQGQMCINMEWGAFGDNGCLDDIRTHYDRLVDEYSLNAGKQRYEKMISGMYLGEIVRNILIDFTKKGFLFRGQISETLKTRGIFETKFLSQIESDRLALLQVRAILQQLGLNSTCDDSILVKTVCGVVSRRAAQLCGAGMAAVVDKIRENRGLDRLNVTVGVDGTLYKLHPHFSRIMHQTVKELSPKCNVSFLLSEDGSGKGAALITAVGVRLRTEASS
Assay: HK1 enzyme activation by HKDC1 hits – biochemical, selectivity assay for HKDC1 activator project, dose response (AID 504762)

| Compound | EC50 |
| --- | --- |
| CC(N=Nc1nc2ccccc2o1)c1cc2ccccc2cn1 (centres undefined) | > 80 µM |
| Nn1cnnc1N=NCc1cc(Br)cc(Br)c1O | 42.3 µM |
| Cc1[nH]n(-c2ccccc2)c(=O)c1CN=Nc1nncc(-c2ccccc2)n1 [(4E)-5-methyl-2-phenyl-4-[[(5-phenyl-1,2,4-triazin-3-yl)hydrazo]methylidene]-3-pyrazolone] | > 80 µM |
| CCCOC1=CC(=O)C(C=NNC(=S)Nc2ccccc2[N+](=O)[O-])C=C1 (centres undefined) [1-(2-nitrophenyl)-3-[[(E)-(6-oxo-4-propoxy-1-cyclohexa-2,4-dienylidene)methyl]amino]thiourea] | > 80 µM |
| Cc1ccc2c(C)c3ccc4ccccc4c3c[n+]2c1 [MLS002701915] | 5.2 µM |
| CC(C)(C)c1nnc(N=NCc2cc(Br)ccc2O)n(N)c1=O [4-azanyl-3-[2-[(E)-(3-bromanyl-6-oxidanylidene-cyclohexa-2,4-dien-1-ylidene)methyl]hydrazinyl]-6-tert-butyl-1,2,4-triazin-5-one] | > 80 µM |

Results, then the compound that gave them:

| EC50 | Compound |
| --- | --- |
| 30.8 µM | Oc1c(Cl)c(N=Cc2cccnc2)c(O)c2ccccc12 [MLS001195521] |
| 37.1 µM | O=C1C(=C2C(=O)c3ccccc3C2=O)Nc2ccccc21 [MLS000071738] |
| 34.1 µM | CC(=O)Oc1cccc2c(O)c3c(c(O)c12)CC=CC3OC(C)=O (centres undefined) [SMR001574207] |
